Data set [1] deals with ribosomal S6 protein phosphorylation in Nf1−/− astrocytes. The data set can be described thus: S6 phosphorylation (phospho-S6 Ser240/244 Western blot) in Nf1−/− astrocytes. The class given is cell-based, mouse. Here is the method: (§1) Western blot analysis was performed as described previously in, for example, Dasgupta B et al., The Neurofibromatosis 1 Gene Product Neurofibromin Regulates Pituitary Adenylate Cyclase-Activating Polypeptide-Mediated Signaling in Astrocytes, J. NEUROSCI. 23:8949-8954 (2003). The following antibodies were used: anti-NF1GRP, nucleolin, and cyclin D1 (Santa Cruz Biotechnology, Santa Cruz, Calif.), phospho-S6 (Serine-240/244; Cell Signaling Technology, Beverley, Mass.), α-tubulin and fibrillarin (Sigma, St. Louis, Mo.), anti-T7 (Novagen, Madison, Wis.), anti-KT3 (Babco, Richmond, Calif.), NPM (Zymed, San Francisco, Calif.), and L7 (Novus Biologicals, Littleton, Colo.).
(§2) One of the downstream targets of activated RAS is P13-Kinase. See Rodriguez-Viciana P, et al., Phosphatidylinositol-3-OH Kinase as a Direct Target of Ras, NATURE 370:527-532 (1994). In this regard, loss of neurofibromin expression is associated with activation of the PI3K-AKT signaling pathway in human NF1-associated pilocytic astrocytoma and in Nf1−/− mouse myeloid cells. See Lau N, et al., Loss of Neurofibromin is Associated with Activation of Ras/MAPK and PI3K/AKT Signalling in a Neurofibromatosis 1 Astrocytoma, J NEUROPATHOL. EXP. NEUROL. 59:759-767 (2000); and Donovan S, et al., Hyperactivation of Protein Kinase B and Erk Have Discrete Effects on Survival, Proliferation, and Cytokine Expression in Nf1-Deficient Myeloid Cells, CANCER CELL 2:507-514 (2002). Several studies have shown that activation of the PI3K-AKT leads to activation of the mammalian target of rapamycin (mTOR), which leads to phosphorylation of S6 kinase and activation of ribosomal S6. See Chung J, et al., PDGF- and Insulin-Dependent pp70S6k Activation Mediated by Phosphatidylinositol-3-OH Kinase, NATURE 370:71-75 (1994); and Gingras A C, et al., Regulation of Translation Initiation by FRAP/mTOR, GENES DEV. […] To determine whether S6 hyperactivation in Nf1−/− astrocytes is downstream of PI3K and mTOR, S6 phosphorylation in both Nf1+/+ and Nf1−/− astrocytes in presence of a PI3K inhibitor (LY294002) and an mTOR inhibitor (rapamycin) was measured. […]
In general terms: A western blot detects proteins with antibodies after separation by electrophoresis.

Data set [2] concerns ribosomal S6 protein phosphorylation in wild-type (Nf1+/+) astrocytes. Nature of the data set: S6 phosphorylation (phospho-S6 Ser240/244 Western blot) in wild-type astrocytes. The class given is cell-based, mouse. The following applies: for S6 phosphorylation: wild-type astrocytes. How it is done:
as §1, §2

Data set [3] deals with FKBP-rapamycin binding domain (FRB) of mammalian target of rapamycin (mTOR) (Homo sapiens, UniProt P42345+P62942). The settings on record: cited from earlier work.
FKBP-rapamycin binding domain (FRB) of mammalian target of rapamycin (mTOR), sequence (P42345 2015-2114, species assumed): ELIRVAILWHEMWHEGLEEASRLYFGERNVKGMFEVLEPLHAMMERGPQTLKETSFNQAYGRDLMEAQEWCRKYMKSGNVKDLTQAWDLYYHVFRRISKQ
FKBP-rapamycin binding domain (FRB) of mammalian target of rapamycin (mTOR), sequence (P62942 2-108, species assumed): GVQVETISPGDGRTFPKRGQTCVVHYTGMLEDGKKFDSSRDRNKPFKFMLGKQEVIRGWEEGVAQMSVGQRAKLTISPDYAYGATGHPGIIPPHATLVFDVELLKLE
Data set [4] concerns wild-type astrocytes. Nature of the data set: Astrocyte proliferation by 3[H]-thymidine incorporation, wild-type astrocytes. (Dividing cells build labelled thymidine or BrdU into new DNA.)
Protocol: (§3) Murine neocortical astroglial cultures, containing >95% GFAP positive cells (astrocytes), were generated from postnatal day 2 Nf1^flox/flox and (LSL)-K-RAS^G12D; GFAPCre transgenic pups as previously described. […] Astrocyte proliferation assays were performed by ^3[H]-thymidine incorporation.
(§4) To determine whether the growth advantage of Nf1-deficient astrocytes reflected increased mTOR signaling, Nf1−/− astrocyte proliferation after rapamycin treatment was measured.
In data set [5] the target is 12 kDa FK506 binding protein (FKBP12) (Homo sapiens, UniProt P62942). The settings on record: cited from earlier work.
12 kDa FK506 binding protein (FKBP12), sequence (P62942 whole entry, species assumed): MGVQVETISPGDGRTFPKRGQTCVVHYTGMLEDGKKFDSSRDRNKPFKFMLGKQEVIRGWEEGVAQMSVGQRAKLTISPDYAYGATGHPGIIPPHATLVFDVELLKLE
Data set [6] relates to Nf1−/− astrocytes. Nature of the data set: Astrocyte proliferation by 3[H]-thymidine incorporation, Nf1−/− astrocytes.
Protocol: as §3, §4
For data set [7], the system named is astrocytes. The following applies: mouse, 1 μM.
Protocol: as §4
Where [8] appears, read: control astrocytes, FIG. 6 legend.

On to `CO[C@H]1C[C@@H]2CC[C@@H](C)[C@@](O)(O2)C(=O)C(=O)N2CCCC[C@H]2C(=O)O[C@H]([C@H](C)C[C@@H]2CC[C@@H](O)[C@H](OC)C2)CC(=O)[C@H](C)/C=C(\C)[C@@H](O)[C@@H](OC)C(=O)[C@H](C)C[C@H](C)/C=C/C=C/C=C/1C` [rapamycin, Rapamycin], for which the S6 phosphorylation result in data set [1] (1 μM, FIG. 6 inset) was “significantly inhibited”; in data set [1] (5 μM, FIG. 2C), “completely inhibited”; in data set [2] (1 μM, FIG. 6 inset), “no effect”; in data set [2] (5 μM, FIG. 2C), “completely inhibited”. Moreover, the “inhibition of ribosomal S6 protein phosphorylation, dose dependence” value in data set [1] (FIG. 6 legend) was “dose-dependent inhibition”. Also, in data set [2] (setting [8]), the “effect on ribosomal S6 protein phosphorylation in control astrocytes” value is recorded as “little or no effect”. For the same compound, the “binding affinity to FRB domain (E2015 to Q2114) of mTOR” value in data set [3] is “high affinity”. For the same compound, the “effect on cell proliferation (growth) in control astrocytes” value in data set [4] (setting [8]) is “little or no effect”. Moreover, the “reduction of basal proliferation” value in data set [4] (wild-type astrocytes, 1 μM) is 16±4%. Further, in data set [5], the “binding affinity to FKBP12” value was “high affinity”. In data set [6] (1 μM), this compound displayed a reduction of proliferation of 55±9.5%. In addition, the “inhibition of cell proliferation (growth), dose dependence” value in data set [6] (FIG. 6 legend) is recorded as “dose-dependent inhibition”. For the same compound, the “cell survival (Trypan blue exclusion)” value in data set [7] is reported as “greater than 98%”.

The record behind these values is US20070004767A1, “Methods for treating neurofibromatosis 1” (priority 2005, published 2007).
